Data published in patent US20190194148A1, “TETRAZOLE-CONTAINING 1,2-CYCLOPROPANE-CARBOXAMIDES” (Bayer Pharma Aktiengesellschaft, priority 2017, published 2019).

Biological target: T1, human B1 receptor (Homo sapiens, UniProt P46663)
T1 construct: host or cells: CHO-K1
T1 sequence (P46663 1-353): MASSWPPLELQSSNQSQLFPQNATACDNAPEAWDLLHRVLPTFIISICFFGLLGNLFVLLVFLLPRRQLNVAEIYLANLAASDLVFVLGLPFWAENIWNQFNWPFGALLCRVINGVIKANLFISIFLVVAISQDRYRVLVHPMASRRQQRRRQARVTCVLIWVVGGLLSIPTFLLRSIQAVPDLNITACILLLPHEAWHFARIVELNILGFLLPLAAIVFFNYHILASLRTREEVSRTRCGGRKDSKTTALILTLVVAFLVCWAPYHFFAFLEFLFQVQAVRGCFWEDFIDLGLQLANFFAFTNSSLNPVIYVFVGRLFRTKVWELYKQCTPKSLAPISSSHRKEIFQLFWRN
Assay: Calcium flux assay (FLIPR) with recombinant CHO-K1 cells expressing human B1 receptor
Type: cell-based
Conditions: absence of 0.1% BSA in assay buffer, read-out: hB1 free IC50
Protocol: The potency to inhibit the Bradykinin B1 receptors was determined for the example compounds of this invention in a cell-based fluorescent calcium-mobilisation assay. The assay measures the ability of example compounds to inhibit Bradykinin B1 receptor agonist-induced increase of intracellular free Ca^2+ in the cell line expressing B1 receptor. Specifically, calcium indicator-loaded cells are pre-incubated in the absence or presence of different concentrations of example compounds followed by the stimulation with a selective B1 receptor agonist peptide. The change of the intracellular Ca^2+ concentration is monitored with a fluorescent plate reader FLIPR (Molecular Devices).
Calcium Flux Assays (FLIPR) with Cells Expressing Bradykinin B1 Receptor Calcium Flux Assay (FLIPR) with Recombinant Cells for Bradykinin B1 Receptor Antagonist, Either in the Presence (hB1 IC50) or Absence (hB1 free IC50) of 0.1% Bovine Serum Albumin (BSA) in Assay Buffer
CHO-K1 cell line expressing human B1 receptor was purchased from Euroscreen (Gosselies, Belgium, with reference name hB1-D1). The cells were grown in Nutrient Mixture Ham's F12 (Sigma) containing 10% Foetal bovine serum (Sigma) and 400 μg/mL G418 (Sigma), 5 μg/mL puromycin (Sigma).
For the calcium flux assay, 80% confluent cells were detached from the culture vessels with Versene (Gibco), and seeded into 384-well plates (Cell binding Surface; Corning, N.Y.; #3683) at a density of 15,000 cells per well. Cells were seeded in a volume of 50 μL in medium without antibiotics and incubated overnight in a humidified atmosphere with 5% CO2 at 37° C. […] The calcium indicator loaded cells were incubated at 37° C. for 2 hrs. Extracellular dye was then removed and each well was filled with 45 μL of assay buffer. Cell plates were kept in dark until used. Example compounds were assayed at 8 concentrations in triplicate. Serial 10-fold dilutions in 100% DMSO were made at a 100-times higher concentration than the final concentration, and then diluted 1:10 in assay buffer. 5 μL of each diluted compound was added to the well of cell plates (yielding final concentration with 1% DMSO), and incubated for 30 min at 28° C. before the addition of B1 receptor agonist on the FLIPR instrument.
Agonist plates contained the agonist Lys-(Des-Arg)-Bradykinin (Bachem, Brackley) at 3.5×EC90 in assay buffer with 1% DMSO. The addition of agonist 20 μl per well to the assay plate was carried out on the FLIPR instrument while continuously monitoring Ca^2+-dependent fluorescence at 538 nm. A peptide antagonist Lys-(Des-Arg-Leu)-Bradykinin (Bachem, Brackley) at 20 μM was used to determine the full inhibition as control.
Peak fluorescence was used to determine the response to agonist obtained at each concentration of example compound by the following equation:
% Response=100*(RFU(example compound)−RFU(control)/(RFU(DMSO)−RFU(control)
Control=full inhibition by the peptide antagonist Lys-(Des-Arg-Leu)-Bradykinin at 20 μM
The response values were plotted against the logarithm of the compound concentrations. The compounds were tested in triplicates per plate and mean values were plotted in Excel XLfit to determine IC50 values, percentage of maximal inhibition and the Hill slopes.

Point of comparison: CCOc1ncc(-c2ccc(NC(=O)C3CC3c3ccc(Cl)cc3)cc2-c2nnn[nH]2)cn1 (racemic) [Example 27, 2-(4-Chlorophenyl)-N-[4-(2-ethoxypyrimidin-5-yl)-3-(1H-tetrazol-5-yl)phenyl]cyclopropane-carboxamide], IC50 13 nM. Against it:
- COc1ccc(-c2ccc(NC(=O)C3CC3c3ccccc3C)cc2-c2nnn[nH]2)cc1OC (racemic) [Example 4, N-[3′,4′-dimethoxy-2-(1H-tetrazol-5-yl)biphenyl-4-yl]-2-(2-methylphenyl)cyclopro-panecarboxamide] — within 1.5-fold, 12 nM
- COc1ccc(-c2ccc(NC(=O)C3CC3c3ccccc3OC(F)(F)F)cc2-c2nnn[nH]2)cc1OC (racemic) [Example 6, N-[3′,4′-dimethoxy-2-(1H-tetrazol-5-yl)biphenyl-4-yl]-2-[2-(trifluoromethoxy)phen-yl]cyclopropane-carboxamide] — 2.2-fold lower, 6 nM
- COc1ccc(-c2ccc(NC(=O)C3CC3c3cccc(C)c3)cc2-c2nnn[nH]2)cc1OC (racemic) [Example 7, N-[3′,4′-dimethoxy-2-(1H-tetrazol-5-yl)biphenyl-4-yl]-2-(3-methylphenyl)cyclopro-panecarboxamide] — 2.2-fold lower, 6 nM
- O=C(Nc1ccc(-c2ccc(C(F)(F)F)nc2)c(-c2nnn[nH]2)c1)C1CC1c1ccccc1 (racemic) [Example 28, 2-Phenyl-N-{3-(1H-tetrazol-5-yl)-4-[6-(trifluoromethyl)pyridin-3-yl]phenyl}cyclopro-panecarboxamide] — 39-fold higher, 509 nM
- CC1(C(=O)Nc2ccc(-c3ccc(C(F)(F)F)nc3)c(-c3nnn[nH]3)c2)CC1c1ccccc1 (racemic) [Example 29, 1-Methyl-2-phenyl-N-{3-(1H-tetrazol-5-yl)-4-[6-(trifluoromethyl)pyridin-3-yl]phenyl}cyclopro-panecarboxamide] — 40-fold higher, 526 nM
- O=C(Nc1ccc(-c2ccc(C(F)(F)F)nc2)c(-c2nnn[nH]2)c1)C1CC1C1CCCCC1 (racemic) [Example 30, 2-Cyclohexyl-N-{3-(1H-tetrazol-5-yl)-4-[6-(trifluoromethyl)pyridin-3-yl]phenyl}cyclopro-panecarboxamide] — 40-fold higher, 514 nM

Same assay, conditions: presence of 0.1% BSA in assay buffer, read-out: hB1 IC50

Point of comparison: COc1ccc(-c2ccc(NC(=O)C3CC3c3ccccc3F)cc2-c2nnn[nH]2)cc1OC (racemic) [Example 3, N-[3′,4′-dimethoxy-2-(1H-tetrazol-5-yl)biphenyl-4-yl]-2-(2-fluorophenyl)cyclopro-panecarboxamide], IC50 101 nM. Against it:
- COc1ccc(-c2ccc(NC(=O)C3CC3c3ccccc3)cc2-c2nnn[nH]2)cc1OC (racemic) [Example 1, N[3′,4′-dimethoxy-2-(1H-tetrazol-5-yl)biphenyl-4-yl]-2-phenylcyclopropanecarboxamide] — 2.1-fold higher, 209 nM
- COc1ccc(-c2ccc(NC(=O)C3CC3c3cnn(C)c3)cc2-c2nnn[nH]2)cc1OC (racemic) [Example 2, N-[3′,4′-dimethoxy-2-(1H-tetrazol-5-yl)biphenyl-4-yl]-2-(1-methyl-1H-pyrazol-4-yl)cyclopropanecarbox-amide] — 21-fold higher, 2120 nM
- COc1ccc(-c2ccc(NC(=O)C3CC3c3ccccc3C)cc2-c2nnn[nH]2)cc1OC (racemic) [Example 4, N-[3′,4′-dimethoxy-2-(1H-tetrazol-5-yl)biphenyl-4-yl]-2-(2-methylphenyl)cyclopro-panecarboxamide] — 3.7-fold lower, 27 nM
- CCc1ccccc1C1CC1C(=O)Nc1ccc(-c2ccc(OC)c(OC)c2)c(-c2nnn[nH]2)c1 (racemic) [Example 5, N-[3′,4′-dimethoxy-2-(1H-tetrazol-5-yl)biphenyl-4-yl]-2-(2-ethylphenyl)cyclopro-panecarboxamide] — 6.3-fold lower, 16 nM
- COc1ccc(-c2ccc(NC(=O)C3CC3c3ccccc3OC(F)(F)F)cc2-c2nnn[nH]2)cc1OC (racemic) [Example 6, N-[3′,4′-dimethoxy-2-(1H-tetrazol-5-yl)biphenyl-4-yl]-2-[2-(trifluoromethoxy)phen-yl]cyclopropane-carboxamide] — 5-fold lower, 20 nM
- COc1ccc(-c2ccc(NC(=O)C3CC3c3cccc(C)c3)cc2-c2nnn[nH]2)cc1OC (racemic) [Example 7, N-[3′,4′-dimethoxy-2-(1H-tetrazol-5-yl)biphenyl-4-yl]-2-(3-methylphenyl)cyclopro-panecarboxamide] — 5.3-fold lower, 19 nM
- COc1ccc(-c2ccc(NC(=O)C3CC3c3ccc(Cl)cc3)cc2-c2nnn[nH]2)cc1OC (racemic) [Example 9, 2-(4-chlorophenyl)-N-[3′,4′-dimethoxy-2-(1H-tetrazol-5-yl)biphenyl-4-yl]cyclo-propanecarboxamide] — 5.3-fold lower, 19 nM
- COc1ccc(-c2ccc(NC(=O)C3CC3c3ccc(C)cc3)cc2-c2nnn[nH]2)cc1OC (racemic) [Example 10, N-[3′,4′-dimethoxy-2-(1H-tetrazol-5-yl)biphenyl-4-yl]-2-(4-methylphenyl)cyclopro-panecarboxamide] — 3.1-fold lower, 33 nM
- COc1ccc(-c2ccc(NC(=O)C3CC3c3ccc(F)cc3)cc2-c2nnn[nH]2)cc1OC (racemic) [Example 11, N-[3′,4′-dimethoxy-2-(1H-tetrazol-5-yl)biphenyl-4-yl]-2-(4-fluorophenyl)cyclopro-panecarboxamide] — within 1.5-fold, 95 nM
- CCc1ccc(C2CC2C(=O)Nc2ccc(-c3ccc(OC)c(OC)c3)c(-c3nnn[nH]3)c2)cc1 (racemic) [Example 12, N-[3′,4′-dimethoxy-2-(1H-tetrazol-5-yl)biphenyl-4-yl]-2-(4-ethylphenyl)cyclopro-panecarboxamide] — 3.4-fold higher, 341 nM
- COc1ccc(C2CC2C(=O)Nc2ccc(-c3ccc(OC)c(OC)c3)c(-c3nnn[nH]3)c2)cc1 (racemic) [Example 13, N-[3′,4′-dimethoxy-2-(1H-tetrazol-5-yl)biphenyl-4-yl]-2-(4-methoxyphenyl)cyclo-propanecarboxamide] — 10-fold higher, 1050 nM
- CCOc1ccc(-c2ccc(NC(=O)C3CC3c3ccc(F)cc3)cc2-c2nnn[nH]2)cn1 (racemic) [Example 16, N-[4-(6-ethoxypyridin-3-yl)-3-(1H-tetrazol-5-yl)phenyl]-2-(4-fluorophenyl)cyclopro-panecarboxamide] — 6.7-fold lower, 15 nM
- CCOc1ccc(-c2ccc(NC(=O)C3CC3C3CCCCC3)cc2-c2nnn[nH]2)cn1 (racemic) [Example 20, 2-Cyclohexyl-N-[4-(6-ethoxypyridin-3-yl)-3-(1H-tetrazol-5-yl)phenyl]cyclopro-panecarboxamide] — 3.9-fold higher, 389 nM
- CCOc1cncc(-c2ccc(NC(=O)C3CC3c3ccc(Cl)cc3)cc2-c2nnn[nH]2)c1 (racemic) [Example 22, 2-(4-Chlorophenyl)-N-[4-(5-ethoxypyridin-3-yl)-3-(1H-tetrazol-5-yl)phenyl]cyclopro-panecarboxamide] — 6-fold higher, 603 nM
- CCOc1cncc(-c2ccc(NC(=O)C3CC3c3cccc(C)c3)cc2-c2nnn[nH]2)c1 (racemic) [Example 23, N-[4-(5-Ethoxypyridin-3-yl)-3-(1H-tetrazol-5-yl)phenyl]-2-(3-methylphenyl)cyclopro-panecarboxamide] — 3-fold higher, 303 nM
- COc1cncc(-c2ccc(NC(=O)C3CC3C3CCCCC3)cc2-c2nnn[nH]2)c1 (racemic) [Example 24, 2-Cyclohexyl-N-[4-(5-methoxypyridin-3-yl)-3-(1H-tetrazol-5-yl)phenyl]cyclopro-panecarboxamide] — 3.1-fold higher, 310 nM
- COc1cncc(-c2ccc(NC(=O)C3CC3c3cccc(C)c3)cc2-c2nnn[nH]2)c1 (racemic) [Example 25, N-[4-(5-Methoxypyridin-3-yl)-3-(1H-tetrazol-5-yl)phenyl]-2-(3-methylphenyl)cyclopro-panecarboxamide] — 5.1-fold higher, 520 nM
- COc1cncc(-c2ccc(NC(=O)C3CC3c3ccc(Cl)cc3)cc2-c2nnn[nH]2)c1 (racemic) [Example 26, 2-(4-Chlorophenyl)-N-[4-(5-methoxypyridin-3-yl)-3-(1H-tetrazol-5-yl)phenyl]cyclopro-panecarboxamide] — 3.7-fold higher, 372 nM
- O=C(Nc1ccc(-c2ccc(C(F)(F)F)nc2)c(-c2nnn[nH]2)c1)C1CC1C1CCCCC1 (racemic) [Example 30, 2-Cyclohexyl-N-{3-(1H-tetrazol-5-yl)-4-[6-(trifluoromethyl)pyridin-3-yl]phenyl}cyclopro-panecarboxamide] — 33-fold higher, 3300 nM
- CCOc1ccc(-c2ccc(NC(=O)C3CC3C3CCCCC3)cc2-c2nnn[nH]2)cc1OC (racemic) [Example 31, 2-cyclohexyl-N-[4′-ethoxy-3′-methoxy-2-(1H-tetrazol-5-yl)biphenyl-4-yl]cyclopropane-carboxamide] — 3.7-fold lower, 27 nM
